Experimental data published in paper PMC7804859, “A metabolically stable apelin-17 analog decreases AVP-induced antidiuresis and improves hyponatremia” (Nature Communications, 2021).
Values joined by “and” are separate entries in the source; they are usually repeats but may differ in a detail not shown here. Identical values can stand only once. Each block holds one compound with its values, some of them ahead of it. Ends that are not written are not given here.

Legend:
[1] = target: T1, human V2-R (Homo sapiens, UniProt P30518); experiment: cAMP production in HEK-293 T cells expressing the human V2-R (HTRF); type: cell-based; conditions: FSK 5.10-6M
T1 construct: host or cells: HEK-293T cells, transient transfection
Protocol: (§1) 152 Supplementary Methods
(§2) 154 We quantified cAMP production with the cAMP dynamic 2 assay kit (Cisbio Bioassays,
(§3) 155 Codolet, France), which is based on homogeneous time-resolved fluorescence (HTRF)
156 technology, as previously described 1. […]
For cells expressing the V2-R, HEK-
160 293T cells were transiently transfected with the human V2-R (cDNA Resource Center), after
161 48h, 4000 cells/well were added to white 384-well optiplates and stimulated either with 5
(§4) Cells were then lysed, and
(§5) 165 cAMP levels were determined in accordance with the kit manufacturer’s instructions.
(§6) 166 Stimulation was performed in stimulation buffer-IBMX (SBI) (Hank’s balanced salt solution
(§7) 167 (HBSS-Life Technology), 5 mmol/l Hepes, 0.1% BSA stabilizer (Perkin Elmer), 1 mmol/l
(§8) 168 isobutylmethylxanthine (IBMX, Sigma Aldrich, pH 7.4)). […]

[2] = in vivo; conditions: rat, in vivo, iv
Protocol: (§9) 187 Apelin radioimmunoassay
(§10) 188 Plasma samples (0.5 ml) were acidified with 0.175 ml of 3 mol/l HCl and stored at -80°C
(§11) 189 until use for apelin RIA. Before thawing the sample on ice, 0.05% BSA was added, and the
(§12) 190 samples were centrifuged at 20000 x g at 4°C for 10 min. The supernatants were collected and
(§13) 191 the pH was adjusted to 6.5 with 10 mol/l NaOH and 2 mol/l Tris-HCl buffer (pH 7.4). Apelin
(§14) 192 was extracted from plasma by mixing the supernatant with 0.3 ml of 0.1% BSA in H2O and 1
(§15) 193 ml of 1% trifluoroacetic acid (TFA) - 0.1% BSA, and running the mixture on a Sep-Pak C18
(§16) 194 cartridge (Waters) previously washed with 2 ml 100% acetonitrile and equilibrated with 5 ml
(§17) 195 1% TFA - 0.1% BSA. The columns then were washed with 3 ml 1% TFA - 0.1% BSA and
(§18) 196 apelin was eluted with 1.5 ml 100% acetonitrile. […]
(§19) 208 Plasma or brain apelin levels w ere deter mined by RIA. Samples (0.1ml) w ere mixed with 125I-
(§20) 211 dilution: 1/4500) to give a total volume of 0.2 ml and were incubated at 4°C overnight. We
(§21) 212 used this radioligand instead of [Glp65, Nle75, Tyr77] [125I]-apelin13 since the substitution of
(§22) 214 derivatives as described previously by 3,4.
(§23) 215 We then added 0.5 ml of Amerlex (Amersham RPN 510), and the resulting mixture was
(§24) 216 incubated for 10 min at room temperature. The tubes were centrifuged at 2600 x g at 4°C for
217 20 min. The supernatant was removed and the radioactivity of the precipitates was measured.
218 We assessed the cross-reactivity of the apelin antiserum with various N- and C-terminally
232 according to the following equation: [plasma apelin] tx = [plasma apelin] t0 * e(-kt) , where k is
233 the elimination rate constant. […]

[3] = target: T2, rat apelin-R (Rattus norvegicus, UniProt Q9JHG3); experiment: Radioligand binding ([125I]-pE13F) to membranes from CHO cells stably expressing rat apelin-R-EGFP; conditions: 1 h 20 °C, pH 7.4, new batch of LIT01-196
T2 construct: expressed in transfected cells; membrane preparation
T2 sequence (Q9JHG3 1-377): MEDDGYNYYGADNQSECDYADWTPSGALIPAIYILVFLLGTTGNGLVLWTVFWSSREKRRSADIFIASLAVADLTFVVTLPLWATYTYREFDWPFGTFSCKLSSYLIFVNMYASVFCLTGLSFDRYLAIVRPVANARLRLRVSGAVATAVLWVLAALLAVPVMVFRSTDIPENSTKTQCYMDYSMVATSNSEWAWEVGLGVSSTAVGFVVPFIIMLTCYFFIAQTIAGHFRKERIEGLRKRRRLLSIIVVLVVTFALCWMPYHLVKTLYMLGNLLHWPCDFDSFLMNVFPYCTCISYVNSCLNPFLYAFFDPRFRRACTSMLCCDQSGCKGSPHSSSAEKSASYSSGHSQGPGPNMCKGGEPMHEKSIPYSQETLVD
Protocol: Membranes from CHO cells stably expressing rat apelin-R-EGFP were prepared as previously described[23]. […] The reaction was stopped by adding ice-cold binding buffer and filtering through Whatman GF/C filters. The filters were washed and radioactivity was counted with a Wizard 1470 Wallac gamma counter (PerkinElmer, Turku, Finland).

[4] = target: T3, rat apelin-R-EGFP (Rattus norvegicus, UniProt Q9JHG3); experiment: Inhibition of forskolin-induced cAMP production in CHO cells stably expressing rat apelin-R-EGFP (HTRF); type: cell-based; conditions: 5 µmol/l forskolin, 30 min 20 °C
T3 construct: expressed in transfected cells
T3 sequence (Q9JHG3 1-377): T2 sequence (Q9JHG3 1-377)
Protocol: as §1, §2, §3
156 technology, as previously described 1. For cells expressing the Apelin-R, 2000 CHO cells/well
157 stably expressing rat apelinR-EGFP (clone B70) were added to the 384-well plate and
158 stimulated with 5 µmol/l forskolin (FSK) and various concentrations (0.01 pmol/l to 100 […]
as §4, §5, §6, §7, §8

[5] = in vivo; conditions: mouse, in vivo, iv
Protocol: as §9, §10, §11, §12, §13, §14, §15, §16, §17, §18, §19, §20, §21, §22, §23, §24
217 20 min. The supernatant was removed and the radioactivity of the precipitates was measured. […]

[6] = tested on: normonatremic Sprague-Dawley rats; experiment: Effects of s.c. administration on metabolic parameters in normonatremic rats; type: in vivo, rat
[7] = tested on: hyponatremic rats (AVP 30 ng/h); experiment: Effects of LIT01-196 and tolvaptan in rat model of AVP-induced hyponatremia; type: in vivo
Protocol: Meloxicam was administered postoperatively for analgesia. Animals were then individually housed in metabolic cages (Techniplast), and given a semi-liquid diet consisting of 25 ml Gel-Diet Breeding-10 (SAFE, Augy, France) mixed with 25 ml tap water per day, with water available ad libitum. Animal weight, water, and food consumption were measured daily. Urine was collected daily, urinary electrolytes (Na^+, K^+, Cl^−) were determined with an ISE 3000 (Caretium Medical Instruments, Shenzhen, China) and urinary osmolality was measured with a Cryobasic 1 osmometer (Astori Tecnica, Poncarale, Italy). Blood samples were collected on ice, before implantation of the osmotic minipump, and before drug administration, under isoflurane anesthesia, from the tail vein (4 µl of lithium heparinate (1600 IU/ml) for 400 µl of blood). The blood samples were immediately centrifuged (4 °C, 2600 × g, 20 min), and plasma electrolyte (Na^+, K^+, Cl^−) levels were quantified with an ISE 3000. On the last day of the experiment, blood was also collected on ice by intracardiac puncture. This blood sample was collected into lithium heparinate under isoflurane anesthesia; plasma electrolyte levels were determined as described above and the animals were immediately killed by carbon monoxide inhalation.

[8] = tested on: patients; conditions: cited from earlier work
[9] = tested on: hyponatremic rats; experiment: Plasma AVP and apelin-IR levels in hyponatremic rats (RIA); type: in vivo, rat
Protocol: as §9
(§25) 189 until use for apelin RIA.
(§26) The supernatants were collected and
(§27) The samples were dried and dissolved in
(§28) 201 centrifuged (17000 x g, 4°C, 20 min). The supernatant (4 ml) was collected, and mixed with
(§29) The columns were then treated as described in
(§30) Samples (0.1ml) w ere mixed with 125I-
as §21, §22
(§31) 216 incubated for 10 min at room temperature.
(§32) This antiserum identified the apelin present in the
(§33) Most of the apelin in human plasma was
(§34) 252 TechMedILL platfor m (Illkirch) reviewed and approved by the agriculture ministry regulating
(§35) 256 Male Sprague-Dawley rats were killed by decapitation, and trunk blood was collected on ice
(§36) 257 (into 50 µl of 0.3M EDTA (pH 7.4) per 1 ml of blood). Samples were centrifuged (2,600 x g,
(§37) 258 4°C, 20 min), and the resulting plasma was split into 500 µl aliquots, to which we added 168
(§38) 259 µl of 3N HCl before storage at -80°C. The AVP RIA was performed as previously described
(§39) 260 5, using a specific AVP-[Arg8] antibody (final dilution, 1/4.5) and [125I]-(Tyr2Arg8)-AVP
(§40) 261 (2200 Ci/mmol, Perkin-Elmer, Billerica, MA; 15000 dpm) as a tracer. […]

[10] = tested on: control rats; experiment: Plasma AVP and apelin-IR levels in control rats (RIA); type: in vivo, rat; set-up: Apelin / AVP: unit not given here
Protocol: as §9, §25, §26, §27, §28, §29, §30, §21, §22, §31, §32, §33, §34, §35, §36, §37, §38, §39, §40

[11] = target: anti-K17F serum; experiment: Inhibition of [125I]-pE13F binding to anti-K17F serum (apelin RIA, cross-reactivity); set-up: species or system rabbit; conditions: read-out: IC50, recognition by antibody directed against K17F, antiserum 1/4500
Protocol: as §29, §30, §21, §22, §31, §32
Most of the apelin in human plasma was […]

[12] = 900 nmol/kg SC (tolvaptan 0.4.SC [sic]), normonatremic rats, single animals

T1 sequence (P30518 whole entry): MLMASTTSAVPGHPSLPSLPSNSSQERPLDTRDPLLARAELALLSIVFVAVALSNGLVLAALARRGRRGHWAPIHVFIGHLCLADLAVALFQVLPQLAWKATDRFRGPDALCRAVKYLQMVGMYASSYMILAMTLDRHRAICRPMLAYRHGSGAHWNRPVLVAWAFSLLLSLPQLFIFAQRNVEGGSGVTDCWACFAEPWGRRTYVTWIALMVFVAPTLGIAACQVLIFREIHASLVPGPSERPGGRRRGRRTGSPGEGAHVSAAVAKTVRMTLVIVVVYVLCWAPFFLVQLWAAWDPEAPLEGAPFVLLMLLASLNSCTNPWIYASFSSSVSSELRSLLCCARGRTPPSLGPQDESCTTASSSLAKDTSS

cAMP production, Value (Fig 2B) ([1]; experiment 1): 139.382
cAMP production, Value (Fig 2B) ([1]; experiment 2): 85.1109
cAMP production, Value (Fig 2B) ([1]; experiment 3): 116.78
cAMP production, Value (Fig 2B) ([1]; experiment 4): 128.996
Compound: C=C[C@@]1(C)CC(=O)[C@]2(O)[C@@]3(C)[C@@H](O)CCC(C)(C)[C@@H]3[C@H](O)[C@H](OC(C)=O)[C@@]2(C)O1 [FSK]

half-life [2]: 50 s
Ki [3]: 0.14 ± 0.02 nM
IC50 [4]: 0.6 ± 0.2 nM
half-life [5]: 44 s
Compound: CSCC[C@H](NC(=O)[C@@H]1CCCN1C(=O)CNC(=O)[C@H](CCCCN)NC(=O)[C@H](Cc1cnc[nH]1)NC(=O)[C@H](CO)NC(=O)[C@H](CC(C)C)NC(=O)[C@H](CCCNC(=N)N)NC(=O)[C@@H]1CCCN1C(=O)[C@H](CCCNC(=N)N)NC(=O)[C@H](CCC(N)=O)NC(=O)[C@H](CCCNC(=N)N)NC(=O)[C@H](CCCNC(=N)N)NC(=O)[C@H](Cc1ccccc1)NC(=O)[C@@H](N)CCCCN)C(=O)N1CCC[C@H]1C(=O)N[C@@H](Cc1ccccc1)C(=O)O [K17F, reference compound]

Compound: Cc1ccccc1C(=O)Nc1ccc(C(=O)N2CCCC(O)c3cc(Cl)ccc32)c(C)c1 (stereo not shown) [tolvaptan, reference compound]
Urine osmolality (3 hours) [6, 12]: 400 and 540 and 520 and 404 and 412
Urine osmolality (6 hours) [6, 12]: 484 and 656 and 532 and 492 and 496
Urine osmolality (24 hours) [6, 12]: 772 and 1396 and 1244 and 1552 and 1324 and 1300 and 1592 and 1040 and 1416 and 1184 and 2300 and 1048
increase in water intake ([6]; 900 nmol/kg s.c., 24 h): 37%
increase in water intake to food intake ratio ([6]; 900 nmol/kg s.c., 24 h): 24%
increase in 24-h urine output relative to saline ([6]; 900 nmol/kg s.c., normonatremic rats): 77%
decrease in urine osmolality ([6]; 900 nmol/kg s.c., normonatremic rats, 24 h): 40%
Sodium excretion fraction ([6]; LIT01-196 900 nmol/kg, tolvaptan 6700 nmol/kg s.c., 24 h): not changed
Water excretion fraction ([6]; Tolvaptan 6700 nmol/kg SC, individual animals (Fig. S4C source data)): 0.8154 and 1.026 and 2.311 and 0.5818 and 0.7955 and 0.7
Sodium excretion fraction ([6]; Tolvaptan 6700 nmol/kg SC, individual animals (Fig. S4D source data)): 0.6016 and 0.6502 and 0.5049 and 0.3349 and 0.4657 and 0.6432
Water to food ratio ([6]; normonatremic rats, 900 nmol/kg SC, individual animal values (source data Fig. 4L)): 1.532 and 1.653 and 1.89 and 1.641 and 1.608
increase in urine output 24 h after s.c. administration ([7]; 900 nmol/kg s.c., rats receiving 30 ng/h AVP and liquid diet): 9.5 ± 2.9 ml/24 h/100 g
increase in urine output 24 h after s.c. administration ([7]; 6700 nmol/kg s.c., rats receiving 30 ng/h AVP): 27 ± 9.0 ml/24 h/100 g
patients with overly rapid sodium correction ([8]; 7.5 mg per day, hyponatremia patients, baseline serum sodium <125 mmol/l): 23%
patients with ADPKD discontinuing treatment for aquaresis-related events [8]: 8%
plasma AVP and apelin levels versus AVP + saline ([9]; 6700 nmol/kg s.c., 3 h): similar
Plasma AVP ([9]; AVP 30 ng/h rats, individual animals (Fig. 6A source data)): 39.2062 and 41.6048 and 44.1878 and 29.3355 and 51.7522 and 30.996 and 44.9258 and 45.018
Plasma apelin ([9]; AVP 30 ng/h rats, individual animals (Fig. 6B source data)): 312 and 375 and 335 and 404 and 283 and 315 and 384 and 365
Apelin to AVP ratio ([9]; AVP 30 ng/h rats, individual animals (Fig. 6C source data)): 7.958 and 9.013 and 7.581 and 13.7717 and 5.468 and 10.1626 and 8.547 and 8.108
plasma apelin-IR levels versus control rats ([10]; 3 h after 6700 nmol/kg s.c.): similar
plasma apelin/AVP ratio versus saline ([10]; 3 h after 6700 nmol/kg s.c.): similar
plasma AVP levels, higher than in animals receiving saline ([10]; 3 h after s.c., tolvaptan 6700 nmol/kg, LIT01-196 900 nmol/kg): 147%
AVP ([10]; plasma AVP, Tolvaptan 6700 nmol/kg SC, individual animals (Fig. S4F source data)): 46.8225 and 42.0318 and 57.2512 and 20.2981 and 21.5164 and 46.682
Apelin ([10]; plasma apelin-IR, Tolvaptan 6700 nmol/kg SC, individual animals (Fig. S4E source data)): 782.319 and 460.81 and 574.125 and 749.499 and 564.407 and 576.365
apelinAVPratio ([10]; plasma apelin/AVP ratio, Tolvaptan 6700 nmol/kg SC, individual animals (Fig. S4G source data)): 16.7082 and 10.9634 and 10.0282 and 36.9246 and 26.2315 and 12.3466

Compound: Fluoro-K16P: not recognized by the antibody directed against K17F (KFRRQRPRLSHKGPMP; also: fluorescent label, site and dye not given here; UniProt Q9ULZ1 61-76, looked up, fragment) [reference compound]
IC50 [11]: > 1000 nM
